Experimental data published in patent publication US20070010477A1, “Acyl homoserine lactones for inhibition of cell growth” (priority 2005, published 2007).

Legend:
TS [1] = experiment: Western blot of TS protein down-regulation in H630 cells; type: cell-based, human; conditions: for down-regulation of TS protein (activity in words): 18-20 hours after addition
Method: Conventional techniques were used to propagate and maintain the H630 and H630-1 cell lines (see, for example Dolnick, et al. (2003) Cancer Biology & Therapy, 2: 364-369; Stephanie, et al. (2001) In: Proceedings AACR, New Orleans, La., pp. 493). For the investigation of effects on TS expression, cells were extracted at 18-20 hours after the addition of AHLs. For Western blot analysis, proteins were extracted and Western blotting was performed by standard methods using blots blocked with 5% nonfat dried milk dissolved in 10 mM Tris-HCl, pH 8.0, 150 mM sodium chloride, 0.05% Tween-20. The blots were probed using either monoclonal (4D5E11) or polyclonal antibodies to TS and then probed for α-tubulin (monoclonal antibody B-5-1-2, Sigma Biochemicals) to confirm equivalent protein loading. The same blots were successively probed with anti-rTSβ or anti-TS, and finally anti-tubulin. After probing for each protein, the blots were stripped by incubation in 8 M guanidine HCl. Detection of rTS protein was performed with mouse monoclonal antibody D3, prepared against recombinant rTSβ protein. All Western blots were detected using the horseradish peroxidase-based West Pico Dura chemiluminescent substrate (Pierce) and horseradish peroxidase-coupled F(ab′)2 fragments (Jackson ImmunoResearch Laboratories, West Grove, Pa.) as secondary antibodies
These AHLs were synthesized as described previously (Chhabra, et al., 1993, J. Antibiotics 46, 441-454). For studies with the H630-1 cell line, AHLs were either dissolved in RPMI 1640 (hydroxy-butanoyl-, butanoyl-, 3-(oxo)-hexanoyl-homoserine lactones) or in dimethyl sulfoxide (DMSO) (hexanoyl-homoserine lactones) and added to mid-log H630 cells in RPMI1640 containing 10 μM methionine and 1× ITS+ culture supplement (BD Bioscience) in place of serum at the indicated concentrations. […] After 18 hr, the medium was removed, the cells washed twice and protein extracted. The extracted proteins were separated on denaturing polyacrylamide gels and probed for rTS, TS and tubulin using specific antibodies.
This embodiment describes the down regulation of TS by AHLs as a ftmction of time. H630 cells were incubated with medium containing 3-oxo-hexanoyl-L-HSL (3 mM) as described for Example 5. The extraction and analysis was also carried out as described in Example 5 at the indicated times after drug addition.
(§1) A variety of AHLs with acyl-chains containing 4- to 12-carbons (C4-C12) and 3-hydroxy or 3-keto substituents were prepared as described in Example 1 and analyzed for their effect on TS protein expression by Western blotting. Although several of the shorter chain AHLs (C4-C6) can cause loss of TS, the required concentrations are in the mM range. […] The latter observation indicates 3-oxo-C12-HSL has effects on gene expression aside from the down-regulation of TS. In this regard, FIG. 8C provides a photographic representation of the effect of 23 μmol/L 3-oxo-C12-HSL on TS mRNA levels in H630 cells (20 hours of exposure) as evaluated by RT-PCR. […] Microarray analysis of H630 RNA was done using the Affymetrix (Santa Clara, Calif.) HGU133A GeneChip. Microarray data was analyzed using Genetraffic software (Stratagene, La Jolla, Calif.) with the Robust Multichip Analysis method (Lauren et al., (2003) IEEE Trans Nanobioscience; 2:163-70) for measuring probe intensity and scaling. Results for treated and untreated cells were analyzed for significant changes within each experiment (P<0.05) as well as for changes in pooled data from three separate experiments. RNA for RT-PCR or microarray analysis was prepared using an RNAeasy kit from Qiagen (Valencia, Calif.).

H630 cells [2] = experiment: Colony formation assay; conditions: for enhancement of activity by 3-oxo-C12-HSL: colony formation, 23 μM 3-oxo-C12-HSL
H630 cells [3] = experiment: Growth inhibition, cells counted 3 days after addition; type: cell-based, human
TS [4] = biological target: T1, TS (Homo sapiens, UniProt P04818); experiment: TS modulation assay (luciferase mRNA containing TS binding elements) in H630 cells; type: cell-based; conditions: H630 cells treated with IC50 concentration
T1 construct: effects of AHLs on TS and tubulin in H630 cells; endogenous in cells; host or cells: H630 human colon cancer cells
T1 sequence (P04818 whole entry): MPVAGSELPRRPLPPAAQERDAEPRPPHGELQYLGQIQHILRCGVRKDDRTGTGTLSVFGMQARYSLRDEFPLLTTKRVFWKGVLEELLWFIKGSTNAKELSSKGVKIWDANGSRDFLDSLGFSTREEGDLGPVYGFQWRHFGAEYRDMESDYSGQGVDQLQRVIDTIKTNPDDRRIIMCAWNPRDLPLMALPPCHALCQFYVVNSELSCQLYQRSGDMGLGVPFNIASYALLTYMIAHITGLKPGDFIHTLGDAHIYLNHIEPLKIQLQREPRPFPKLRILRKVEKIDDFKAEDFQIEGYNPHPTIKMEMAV

MCF-7 cells = experiment: Growth inhibition; type: cell-based, human; conditions: MCF-7 breast cancer cell line
TS mRNA = experiment: RT-PCR of TS mRNA levels in H630 cells; type: cell-based, human; conditions: 23 μmol/L, 20 hours of exposure
Method: as §1, with “Calif.). […]” for “Calif.).”

H630-1 = experiment: Sulforhodamine-B growth inhibition assay, 5 days; type: cell-based, human; conditions: H630-1 cells, SRB staining
Method: (§2) For growth inhibition assays described in this Example, H630, H630-1 and PC-3 (prostate cancer cells) cells were growth in the presence of HSL analog for 5 days. At the end of day 5, cells were fixed and stained with Sulforhodamine-B (SRB), a protein-staining dye. Excess SRB was removed leaving only dye bound to proteins from cells. Protein-bound SRB was then dissolved in base and quantified by spectrophotometric absorbance. In this assay, the amount of SRB bound to protein correlates with the number of cells present, allowing for the analysis of growth of treated versus untreated samples. The HSL analogs are administered at 10 concentrations, spanning a 5 log range.
(§3) The data points in the graphs of FIGS. 13A-13C represent % control growth at a given HSL analog concentration. IC50 values represent the concentration of HSL analog at which growth of the treated cells is inhibited by 50%. The structure of the tested compounds, designated by number, are as set forth in FIG. 13 from which it can be sent that the phenyl-HSL analogs tested range from C5 (compound 12) to C14 (compound 25). […] This effect decreases as the chain length reaches C14, as indicated by an increase in the IC50 values. […] Specifically, the C10 phenyl analog (compound 20) is equally as active as the 3-oxo-C12 HSL used as a positive control, despite having two fewer carbons in the alkyl chain.

[5] = test system: PC-3 (prostate cancer cells); experiment: Sulforhodamine-B growth inhibition assay, 5 days; type: cell-based, human; conditions: PC-3 cells, SRB staining
Method: as §2, §3

H630 = experiment: Sulforhodamine-B growth inhibition assay, 5 days; type: cell-based, human; conditions: H630 cells, SRB staining
Method: as §2, §3

tubulin = experiment: Western blot of tubulin in H630 cells; type: cell-based, human; conditions: FIG. 8B
Method: Conventional techniques were used to propagate and maintain the H630 and H630-1 cell lines (see, for example Dolnick, et al. (2003) Cancer Biology & Therapy, 2: 364-369; Stephanie, et al. (2001) In: Proceedings AACR, New Orleans, La., pp. 493). For the investigation of effects on TS expression, cells were extracted at 18-20 hours after the addition of AHLs. For Western blot analysis, proteins were extracted and Western blotting was performed by standard methods using blots blocked with 5% nonfat dried milk dissolved in 10 mM Tris-HCl, pH 8.0, 150 mM sodium chloride, 0.05% Tween-20. […] All Western blots were detected using the horseradish peroxidase-based West Pico Dura chemiluminescent substrate (Pierce) and horseradish peroxidase-coupled F(ab′)2 fragments (Jackson ImmunoResearch Laboratories, West Grove, Pa.) as secondary antibodies
A variety of AHLs with acyl-chains containing 4- to 12-carbons (C4-C12) and 3-hydroxy or 3-keto substituents were prepared as described in Example 1 and analyzed for their effect on TS protein expression by Western blotting. […] In this regard, FIG. 8C provides a photographic representation of the effect of 23 μmol/L 3-oxo-C12-HSL on TS mRNA levels in H630 cells (20 hours of exposure) as evaluated by RT-PCR. […]

H630-1 cells [6] = experiment: Growth inhibition, cells counted 3 days after addition; type: cell-based, human
NCI-H460 = experiment: Growth inhibition; type: cell-based, human; conditions: NCI-H460 lung cancer cell line
H630-1 cells [7] = experiment: Colony formation assay; type: cell-based, human; conditions: for enhancement of activity by 3-oxo-C12-HSL: colony formation, 8 μM 3-oxo-C12-HSL

SMILES: CCCC(=O)CC(=O)OCC [3-(oxo)-ethylhexanoate, reference compound]
- down-regulation of TS protein (activity in words) (TS [1]; Western blot): inactive

SMILES: O=c1[nH]c(=O)n([C@H]2C[C@H](O)[C@@H](CO)O2)cc1F [FUdR, fluorodeoxyuridine]
- enhancement of activity by 3-oxo-C12-HSL (H630 cells [2]; H630 cells): enhancement

SMILES: CCCCCCCCCCCC(=O)N[C@H]1CCOC1=O [Compound C12-HSL]
- IC50 (H630 cells [3]; FIG. 9B, read-out: IC50 growth inhibition): 1000 µM
- down-regulation of TS protein (TS [1]; at concentrations as high as 100 μM): inactive

SMILES: CCCCCCCCCC(=O)CC(=O)N[C@H]1CCOC1=O [3-oxo-C12-HSL, 3-oxo-C12 homoserine lactone]
- TS modulatory activity (luminescence) (TS [4]): no detectable TS modulatory activity
- IC50 (MCF-7 cells): 16 µM
- IC50 (H630 cells [3]; 3 days): 23 µM
- growth inhibition, relative activity of stereoisomer (H630 cells [3]; FIG. 9B): more active than the racemic mixture
- TS mRNA levels (TS mRNA): unaffected
- IC50 (H630-1): 12 µM
- IC50 [5]: 10 µM
- IC50 (H630): 35 µM
- effect on tubulin with increasing concentrations (tubulin): appears to decrease
- IC50 (H630 cells [2]; read-out: IC50 for inhibition of cell growth in a clonogenic assay, H630 cells, FIG. 9B solid circles): ~10000 nM
- concentration needed to reduce the amount of TS (TS [1]; FIG. 8B): 1 to 10 µM
- lowest concentration causing down-regulation of TS (TS [1]; Western blot, FIG. 8B): 10 µM
- IC50 (H630-1 cells [6]): 8 µM
- IC50 (NCI-H460): 35 µM

SMILES: CC(=O)O[C@H]1C(=O)[C@@]2(C)[C@H]([C@H](OC(=O)c3ccccc3)[C@]3(O)C[C@H](OC(=O)[C@H](O)[C@@H](NC(=O)c4ccccc4)c4ccccc4)C(C)=C1C3(C)C)[C@]1(OC(C)=O)CO[C@@H]1C[C@@H]2O [taxol]
- IC50 (H630-1 cells [7]; Homo sapiens, FIG. 11E): 20 nM
- enhancement of activity by 3-oxo-C12-HSL (H630-1 cells [7]): some enhancement
- enhancement of activity by 3-oxo-C12-HSL (H630 cells [2]; H630 cells): some enhancement
- IC50 (H630 cells [2]; Homo sapiens, NCI-H630, read-out: IC50 colony formation): 6 nM

SMILES: Cc1nc2ccc(CN(C)c3ccc(C(=O)N[C@@H](CCC(=O)O)C(=O)O)s3)cc2c(=O)[nH]1 [tomudex]
- enhancement of activity by 3-oxo-C12-HSL (H630 cells [2]; H630 cells): enhancement

SMILES: CCCC(=O)CC(=O)N[C@H]1CCOC1=O [Compound 3-oxo-C6-HSL, 3-oxo-N-hexanoyl-(L-)homoserine lactone]
- TS modulatory activity (luminescence) (TS [4]): potent modulator of TS
- time for which the TS reduction is maintained (TS [1]; 3 mM): approximately 24 hours
- reduction of TS levels (TS [1]; 3 mM, after 16 hours): approximately 50%

SMILES: CCCCCC(=O)N[C@H]1CCOC1=O (single isomer, unassigned) [(L)-isomer of C6-HSL, N-hexanoyl (L-)-homoserine lactone]
- down-regulation of TS protein (activity in words) (TS [1]; Western blot): active

SMILES: COc1cccc2c1C(=O)c1c(O)c3c(c(O)c1C2=O)C[C@@](O)(C(=O)CO)C[C@@H]3O[C@H]1C[C@H](N)[C@H](O)[C@H](C)O1 [adriamycin]
- enhancement of activity by 3-oxo-C12-HSL (H630 cells [2]; H630 cells): not

SMILES: O=c1[nH]cc(F)c(=O)[nH]1 [FU, 5-fluorouracil]
- enhancement of activity by 3-oxo-C12-HSL (H630-1 cells [7]): No enhancement
- IC50 (H630 cells [2]; Homo sapiens, NCI-H630, 336 h, read-out: apparent IC50 of FU, FU alone): 1000 nM

SMILES: CCCCCC(=O)NC1CCOC1=O (racemic) [C6-HSL racemic mix, hexanoyl-homoserine lactone]
- down-regulation of TS protein (activity in words) (TS [1]; Western blot): less active

SMILES: CN(Cc1cnc2nc(N)nc(N)c2n1)c1ccc(C(=O)N[C@@H](CCC(=O)O)C(=O)O)cc1 [methotrexate]
- enhancement of activity by 3-oxo-C12-HSL (H630 cells [2]; H630 cells): not

SMILES: CCCCCC(=O)NC1CCOC1=O (stereo not shown) [C6-(D)—HSL]
- down-regulation of TS protein (activity in words) (TS [1]; Western blot): inactive

SMILES: O=c1[nH]c(=O)n([C@@H]2O[C@H](CO)[C@@H](O)[C@H]2O)cc1F [FUrd, 5-fluorouridine]
- enhancement of activity by 3-oxo-C12-HSL (H630 cells [2]; H630 cells): no enhancement
